Experiment [1] concerns permeability transition pore (PTP). The experiment can be described thus: Mitochondrial in vitro assay: calcium retention capacity (CRC) of isolated mouse liver mitochondria. The experiment is classed as biochemical. The settings on record: ratio of calcium required to open the PTP with vs without compound, 10 μM Ca2+ pulses at 1 min intervals, compound added 1 min before, 25° C. The source says: The mitochondrial in vitro assay is based on the characteristics of mitochondrial organelles which allow the study of mitochondrial function in reductive sub-cellular in vitro systems. It is possible to investigate many mitochondrial processes in isolated mitochondrial suspension obtained from different tissues.
The ability of isolated mitochondria to uptake calcium from outside is a direct measure of mitochondrial integrity and functioning. Indeed MPT impairs the ability of mitochondria to upload calcium through specific channels that require an intact organelle structure. The assay takes advantage of this phenomenon to evaluate the ability of the invention compounds to interfere with MPT on isolated mitochondria.
Mitochondria were prepared from the livers of male 129 or C57/B6 mouse weighing 20-25 g. The animals were sacrificed by cervical dislocation. The livers were isolated and placed in ice-cold 0.25 M sucrose, 10 mM Tris-HCl, 0.1 mM ethylene-bis(oxoethylenenitrilo)tetraacetic acid (EGTA), pH 7.4 The livers were rinsed three-four times with ice-cold medium, minced with scissor and passed through a manual Potter homogenizer kept in an ice-water bath. The homogenate was diluted to 50 ml per liver, and unbroken cells and nuclei were sedimented by centrifugation at 900×g in a Beckman Avanti™ J-25 refrigerated centrifuge kept at 4° C. for 10 min. The supernatant was carefully decanted and centrifuged at 7000×g in the same centrifuge for 10 min. The supernatant was discarded and the mitochondrial pellets were carefully resuspended in ice-cold isolation medium and spun as above.
The resulting mitochondrial pellets were resuspended in a small amount of ice-cold isolation medium, and stored on ice. Mitochondria protein content was determined with the biuret assay.
The mitochondrial Ca^2+ retention capacity (CRC) is a sensitive measure of the propensity of mitochondria to open the PTP after Ca^2+ uptake. Since mitochondria are bidirectionally permeable to Ca^2+ owing to the presence of a Ca^2+ uniporter in their inner membrane, the mitochondrial membrane potential (Δψm) is responsible for the Ca^2+ accumulation in the mitochondrial matrix and consequent Ca^2+ gradient. Any drop in Δψm, such as depolarization caused by H^+ influx during PTP opening, is expected to result in a redistribution of Ca^2+ between the intra and extra-mitochondrial spaces, during which Ca^2+ uses all available routes through the mitochondrial membrane.
CRC of mitochondrial preparations was assessed fluorimetrically in the presence of the fluorescent Ca^2+ indicator Calcium Green-5N (excitation-emission: 505-535 nm) with a Perkin-Elmer LS 55 spectrofluorimeter equipped with a magnetic stirrer and thermostatic control set to 25° C. (Ichas, F.; Jouaville, L. S.; Mazat, J. P. Mitochondria are excitable organelles capable of generating and conveying electrical and calcium signal. Cell., 1997, 89, 1145-1153). Calcium Green-5N is a fluorometric probe that is not permeable to membranes and when added to a mitochondrial suspension is able to detect the presence of Ca^2+ in the extra-mitochondrial medium. Mitochondria were loaded with a train of 10 μM Ca^2+ pulses at 1 min intervals. Under these conditions mitochondria took up actively and retained Ca^2+ until a point at which mitochondria underwent a fast process of Ca^2+ release due to the opening of the PTP. The number of calcium pulses (final concentration of calcium) required to open the PTP is the mitochondrial CRC. This Ca^2+ loading protocol thus provides a convenient and sensitive assay for measuring PTP opening and it is used to assess the ability of the compounds of the invention to inhibit PTP opening. Compounds were added directly to the mitochondrial solution 1 min. prior to the start of calcium pulsing and the number of calcium pulses required to open the PTP was determined. […]

The subject of experiment [2] is retinal neo-vascularisation. The experiment can be described thus: Mouse retinopathy of prematurity (ROP) model of ischemia-induced retinal neo-vascularisation. The experiment is classed as in vivo. The settings on record: ROP mice. How it is done:
Retinal neo-vascularisation was assessed in a mouse retinopathy of prematurity (ROP) model of ischemia-induced retinal neo-vascularisation. In rodents, retinal vascularisation is generally completed by post-natal day 14 (P14). Oxygen treatment during the second week of life partially causes vaso-obliteration of immature retinal vessels around the optic disk and it blocks subsequent vascular development of the deep retinal layers. When oxygen treatment is stopped, the ischemia of the retina triggers abnormal vessel growth, i.e., retinal neovascularisation.
At postnatal day 7 (P7), newborn mice were exposed to 75% O2 for 5 days in an oxygen incubator. […] Oxygen concentration was monitored by an Oxygen Monitor (Miniox III; Catalyst Research, MD). […]
At day 12 (P12) animals were removed from the oxygen exposure chamber and injected intra-vitreously with a Hamilton syringe with compounds or vehicle solution. […] Flat-mounted retinas were photographed by fluorescence microscopy (Zeiss Axioplan Thornwood, N.Y.) and by computer-imaging (KS300, Kontron Electronik GmbH, Germany) retinal images captured. […]
Eyes from the same groups, at p17, were fixed and sections were prepared and stained with hematoxylin and eosin to quantify the amount of endothelial cells developed. […]

Experiment [3] concerns experimental autoimmune encephalomyelitis (EAE). The experiment can be described thus: Experimental autoimmune encephalomyelitis (EAE) model of multiple sclerosis. In kind it is in vivo, mouse. The source says: Experimental autoimmune encephalomyelitis (EAE) is possibly the best animal model to study demyelinating diseases of the central nervous system (CNS) such as multiple sclerosis (MS) Since the first classical studies EAE has been an invaluable tool for dissecting mechanisms of the immune response against self-antigens within the CNS, as well as to test new therapies for the treatment of autoimmune diseases. Rodents are susceptible to EAE. Depending upon species, antigens and mode of sensitisation, EAE can have a monophasic acute course or a chronic relapsing, and even a primarily progressive course that mimics human MS. Acute models of EAE allow faster experimentation and observation, whereas chronic models allow wider observation, such as preventive versus therapeutic treatments.
Seven week-old C57 black/6N female mice were immunized with an emulsion of mycobacterium tubercolosis and the peptide spanning the sequence 35aa-55aa of the myelin oligodendrocyte glycoprotein (MOG) dissolved in phosphate buffer and Freud adjuvant. Mice were injected subcutaneously, in three different sites, with a total of 0.3 ml of emulsion. Immediately after the immunization mice were injected intravenously with 0.1 ml of pertussin toxin ([…]). […]
Starting from day 10 after the immunization mice were evaluated daily for weight loss and locomotive defects. […]

On to `O=C1C=C(c2cccc(F)c2)C(=O)N1c1cccc(Cl)c1` [Example 9, 1-(3-chlorophenyl)-3-(3-fluorophenyl)-pyrrole-2,5-dione], for which the CRC efficacy in experiment [1] came to 2.75.

In the case of `O=C1C=C(c2ccccc2)C(=O)N1c1cccc(Cl)c1` [Example 63, 1-(3-chlorophenyl)-3-phenyl-pyrrole-2,5-dione], in experiment [1], the CRC efficacy was 2.5. The “neovascularization, fluorangiographic analysis” value in experiment [2] (intravitreal injection at P12, approximately 1 or 2 or 4 microM in the vitreum, analysis at p17, vs DMSO vehicle) was “significant reduction”. In addition, in experiment [2] (intravitreal injection at P12, eyes at p17, hematoxylin and eosin sections, FIG. 1), the “number of endothelial cells present in the eye (per section)” value is on record as “significantly reduces”. For the same compound, the “treated mice developing inferior limb paresis after 20 days” value in experiment [3] (5 mg/kg intraperitoneally every day from day 4, approximately 30% of the untreated EAE mice developed it) is “no one”. Also, in experiment [3] (C57 black/6N female mice, MOG 35-55 immunization, 5 mg/kg intraperitoneally every day from day 4, FIG. 2), the “development of the disease (average clinical score, non parametric scale 0-5)” value is on record as “significantly prevented”.

Consider `O=C1C=C(c2ccccc2)C(=O)N1c1ccc(F)c(Cl)c1` [Example 61, 1-(3-chloro-4-fluorophenyl)-3-phenyl-pyrrole-2,5-dione], for which the CRC efficacy in experiment [1] amounted to 2.83. On the same count and under the same terms, for `Cc1cccc(N2C(=O)C=C(c3ccccc3)C2=O)c1` [Example 22, 1-(3-methylphenyl)-3-phenyl-pyrrole-2,5-dione] the value was 2.57; for `Cc1ccc(C2=CC(=O)N(c3cccc(Cl)c3)C2=O)cc1` [Example 57, 1-(3-chlorophenyl)-3-(4-methylphenyl)-pyrrole-2,5-dione], 2.66; for `O=C1C=C(c2ccccc2F)C(=O)N1c1ccc(F)c(Cl)c1` [Example 14, 1-(3-chloro-4-fluorophenyl)-3-(2-fluorophenyl)-pyrrole-2,5-dione], 2.22. The same measure, in the same setting: the value for `COc1ccc(Cl)cc1N1C(=O)C=C(c2ccccc2)C1=O` [Example 58, 1-(5-chloro-2-methoxyphenyl)-3-phenyl-pyrrole-2,5-dione] was 1.86. On the same count and under the same terms, the value for `Cc1cccc(N2C(=O)C=C(c3ccc(Cl)cc3)C2=O)c1` [Example 53, 1-(3-methylphenyl)-3-(4-chlorophenyl)-pyrrole-2,5-dione] was 2.17; that for `O=C1C=C(c2ccccc2F)C(=O)N1c1cccc(Cl)c1` [Example 13, 1-(3-chlorophenyl)-3-(2-fluorophenyl)-pyrrole-2,5-dione] was 2; that for `O=C1C=C(c2ccc(F)cc2)C(=O)N1c1cccc(Cl)c1` [Example 2, 1-(3-chlorophenyl)-3-(4-fluorophenyl)-pyrrole-2,5-dione] was 2.5. On to `O=C1C=C(c2ccccc2)C(=O)N1c1cccc(C(F)(F)F)c1` [Example 31, 1-(3-trifluoromethylphenyl)-3-phenyl-pyrrole-2,5-dione], for which, in experiment [1], the CRC efficacy stood at 2. On the same count and under the same terms, for `COc1ccc(C2=CC(=O)N(c3cccc(Cl)c3)C2=O)cc1` [Example 48, 1-(3-chlorophenyl)-3-(4-methoxyphenyl)-pyrrole-2,5-dione] the value was 2.11. On the same count and under the same terms, the value for `O=C1C=C(c2ccc(O)cc2)C(=O)N1c1cccc(Cl)c1` [Example 36, 1-(3-chlorophenyl)-3-(4-hydroxyphenyl)-pyrrole-2,5-dione] was 1.87; that for `O=C1C=C(c2cccc(F)c2)C(=O)N1c1ccc(F)c(Cl)c1` [Example 10, 1-(3-chloro-4-fluorophenyl)-3-(3-fluorophenyl)-pyrrole-2,5-dione] was 2.27.

As for `O=C1C=C(c2ccccc2)C(=O)N1c1cccc(Br)c1` [Example 20, 1-(3-bromophenyl)-3-phenyl-pyrrole-2,5-dione], in experiment [1], the CRC efficacy came to 2.33. On the same count and under the same terms, the value for `O=C1C=C(c2ccc(Cl)cc2)C(=O)N1c1cccc(Cl)c1` [Example 55, 1-(3-chlorophenyl)-3-(4-chlorophenyl)-pyrrole-2,5-dione] was 2.33.

The values above are taken from patent US7915304B2, “Phenyl substituted maleimides as medicaments for blocking degenerative tissue damages by inhibiting MPT” (Congenia S.r.l., priority 2006, dated 2011).
